Assay results as given in patent US7151105B2, “Inhibitors of Hepatitis C virus RNA-dependent RNA polymerase, and compositions and treatments using the same” (Agouron Pharmaceuticals, Inc., priority 2004, dated 2006).

Each molecule was assayed against T1, Recombinant HCV polymerase (Hepatitis C virus genotype 1b, UniProt P26663) (assay: biochemical). Details: inhibition of polymerase-directed transcription; 30 min at 30° C; 30 nM enzyme; cpm data in triplicate.
T1 construct: Recombinant HCV polymerase was tested for its ability to perform primer/template-directed transcription
T1 sequence (P26663 2420-3010): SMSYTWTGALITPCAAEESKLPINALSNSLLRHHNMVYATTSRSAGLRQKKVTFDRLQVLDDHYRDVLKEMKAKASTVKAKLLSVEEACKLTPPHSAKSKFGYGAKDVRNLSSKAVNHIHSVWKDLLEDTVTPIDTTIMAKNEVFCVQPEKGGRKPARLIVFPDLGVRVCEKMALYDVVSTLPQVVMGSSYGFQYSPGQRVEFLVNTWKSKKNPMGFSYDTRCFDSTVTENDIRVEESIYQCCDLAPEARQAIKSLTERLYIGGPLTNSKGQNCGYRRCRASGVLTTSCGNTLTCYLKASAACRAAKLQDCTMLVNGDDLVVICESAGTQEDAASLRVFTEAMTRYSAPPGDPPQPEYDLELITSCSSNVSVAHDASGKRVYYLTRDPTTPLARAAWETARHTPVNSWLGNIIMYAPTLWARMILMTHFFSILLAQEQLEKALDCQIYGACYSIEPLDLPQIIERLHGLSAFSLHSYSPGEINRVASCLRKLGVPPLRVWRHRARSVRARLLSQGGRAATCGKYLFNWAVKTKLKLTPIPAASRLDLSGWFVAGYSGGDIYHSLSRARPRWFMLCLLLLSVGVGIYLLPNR
Protocol: The compounds described herein were tested for activity with HCV polymerase. Recombinant HCV polymerase was tested for its ability to perform primer/template-directed transcription in assays that contained 30 mM tris-HCl pH 7.2, 10 mM MgCl2, 20 mM NaCl, 1 mM Dithiothreitol (DTT), 0.05% Tween-20, 1% glycerol, 5 pmoles biotin-dG12 (primer), 0.5 pmoles poly(rC)300 (template), 1 μM GTP, 0.1–0.3 uCi α-^32P-GTP, and 2.5 pmoles (0.15 μg) HCV polymerase protein in a final volume of 75 μL. Reactions were initiated by addition of enzyme and incubated 30 minutes at 30° C. Reactions were stopped by addition of 33 mM EDTA, and polynucleotide products were collected by filtration through Diethylaminoethyl (DE) Filtermat papers (Wallac). Unincorporated triphosphate was removed by washing the filters with 5% dibasic sodium phosphate. The filters were counted in a Packard Tri-Lux Microbeta scintillation counter (Packard Bioscience, Meriden, Conn.). Compounds to be tested were added at various concentrations, e.g., 1 μm to 50 μm, from stocks in 10% DMSO-water (final DMSO is 1% in reaction).
IC50 values were estimated from the primary cpm data (collected in triplicate) using the formula: cpm (I)=cpm (no inhibitor)(1−([I]/([I]+IC50))). […] A percent inhibition value is expressed for a compound where it was impractical to calculate an IC50 value with available data.

Row | IC50 [µM] | SMILES
1 | 0.001 | CCc1cc(CC[C@]2(C3CCCC3)CC(O)=C(Cc3nc4ncc(C)cn4n3)C(=O)O2)c(O)cc1O [A(21), (6R)-6-cyclopentyl-6-[2-(5-ethyl-2,4dihydroxyphenyl)ethyl]-4-hydroxy-3-[(6-methyl[1,2,4]triazolo[1,5-a]pyrimidin-2-yl)methyl]-5,6-dihydro-2H-pyran-2-one]
2 | 0.008 | Cc1cc(C)n2nc(CC3=C(O)CC(CCc4cc(CC(F)(F)F)nc(CC(F)(F)F)c4)(C4CCCC4)OC3=O)nc2n1 (single isomer, unassigned; enantiomer 2) [A(11), Enantiomer 2 of 6-{2-[2,6-Bis(2,2,2-trifluoroethyl)pyridin-4-yl]ethyl}-6-cyclopentyl-3-[(5,7-dimethyl[1,2,4]triazolo[1,5-a]pyrimidin-2-yl)methyl]-4-hydroxy-5,6-dihydro-2H-pyran-2-one]
3 | 0.026 | CC(C)(C#N)c1ccc(CCC2(C3CCCC3)CC(O)=C(Cc3cn4nccnc4n3)C(=O)O2)cc1Cl (stereo not drawn) [B(14), 2-(2-Chloro-4-{2-[2-cyclopentyl-4-hydroxy-5-(imidazo[1,2-b][1,2,4]triazin-6-ylmethyl)-6-oxo-3,6-dihydro-2H-pyran-2-yl]ethyl}phenyl)-2-methylpropanenitrile]
4 | 0.14 | CCn1cc(CC2=C(O)CC(CCc3ccc(C(C)(C)C#N)c(Cl)c3)(C3CCCC3)OC2=O)cn1 (stereo not drawn) [B(23), 2-[2-Chloro-4-(2-{2-cyclopentyl-5-[(1-ethyl-1H-pyrazol-4-yl)methyl]-4-hydroxy-6-oxo-3,6-dihydro-2H-pyran-2-yl}ethyl)phenyl]-2-methylpropanenitrile]
5 | 12 | O=C1CC(=O)OC(CCc2ccc(C(=O)O)c(F)c2)(C2CCCC2)C1 (stereo not drawn) [B(6), 4-[2-(2-Cyclopentyl-4,6-dioxotetrahydro-2H-pyran-2-yl)ethyl]-2-fluorobenzoic acid]
6 | 0.12 | CCS(=O)(=O)N[C@H](C)c1ccc(CCC2(C3CCCC3)CC(O)=C(Cc3nc4nc(C)cc(C)n4n3)C(=O)O2)cc1 (stereo partly drawn) [A(81), N-{(1R)-1-[4-(2-{2-cyclopentyl-5-[(5,7-dimethyl[1,2,4]triazolo[1.5-a]pyrimidin-2-yl)methyl]-4-hydroxy-6-oxo-3,6-dihydro-2H-pyran-2-yl}ethyl)phenyl]ethyl}ethanesulfonamide]
7 | 0.006 | CCc1cc(CCC2(C3CCCC3)CC(O)=C(Cc3nc4nc(C)cc(C)n4n3)C(=O)O2)ccc1CO (single isomer, unassigned; enantiomer 2) [A(115), Enantiomer 2 6-cyclopentyl-3-[(5,7-dimethyl[1,2,4]triazolo[1,5-a]pyrimidin-2-yl)methyl]-6-{2-[3-ethyl-4-(hydroxymethyl)phenyl]ethyl}-4-hydroxy-5,6-dihydro-2H-pyran-2-one]
8 | 0.005 | Cc1cc(C)n2nc(CC3=C(O)CC(CCc4cc(C)c(O)c(CC(F)(F)F)c4)(C4CCCC4)OC3=O)nc2n1 (stereo not drawn) [A(76), 6-Cyclopentyl-3-[(5,7-dimethyl[1,2,4]triazolo[1,5-a]pyrimidin-2-yl)methyl]-4-hydroxy-6-{2-[4-hydroxy-3-methyl-5-(2,2,2-trifluoroethyl)phenyl]ethyl}-5,6-dihydro-2H-pyran-2-one]
9 | 0.17 | Cc1cc(CCC2(C3CCCC3)CC(O)=C(Cc3nc4nc(C)cc(C)n4n3)C(=O)O2)cc(C)n1 (stereo not drawn) [A(18), 6-Cyclopentyl-6-[2-(2,6-dimethylpyridin-4-yl)ethyl]-3[(5,7-dimethyl[1,2,4]triazolo[1,5-a]pyrimidin-2-yl)methyl]-4-hydroxy-5,6dihydro-2H-pyran-2-one]
10 | 0.84 | CCc1cc(CCC2(C3CCCC3)CC(=O)CC(=O)O2)ccc1CC#N (stereo not drawn) [A(102), {4-[2-(2-Cyclopentyl-4,6-dioxotetrahydro-2H-pyran-2-yl)ethyl]-2-ethylphenyl}acetonitrile]
11 | 0.067 | CC(C)(O)c1ccc(CCC2(C3CCCC3)CC(O)=C(Cc3nc4ncc(Cl)cn4n3)C(=O)O2)cc1Cl (stereo not drawn) [B(38), 6-{2-[3-Chloro-4-(1-hydroxy-1-methylethyl)phenyl]ethyl}-3-[(6-chloro[1,2,4]triazolo[1,5-a]pyrimidin-2-yl)methyl]-6-cyclopentyl-4-hydroxy-5,6-dihydro-2H-pyran-2-one]
12 | 0.004 | CCOc1cc(O)c(CC)cc1CCC1(C2CCCC2)CC(O)=C(Cc2nc3nc(C)cc(C)n3n2)C(=O)O1 (single isomer, unassigned) [A(30), 6-Cyclopentyl-3-[(5,7-dimethyl[1,2,4]triazolo[1,5-a]pyrimidin-2-yl)methyl]-[-6–2-(2-ethoxy-5-ethyl-4-hydroxyphenyl)ethyl]-4-hydroxy-5,6-dihydro-2H-pyran-2-one]
13 | 48 | CS(=O)(=O)c1ccc(CCC2(C3CCCC3)CC(=O)CC(=O)O2)cc1Cl (stereo not drawn) [B(2), 6-{2-[3-Chloro-4-(methylsulfonyl)phenyl]ethyl}-6-cyclopentyldihydro-2H-pyran-2,4(3H)-dione]
14 | 0.003 | CCOc1cnc(CC)cc1CCC1(C2CCCC2)CC(O)=C(Cc2nc3nc(C)cc(C)n3n2)C(=O)O1 (single isomer, unassigned) [A(51), 6-Cyclopentyl-3-[(5,7-dimethyl[1,2,4]triazolo[1,5-a]pyrimidin-2-yl)methyl]-6-[2-(5-ethoxy-2-ethylpyridin-4-yl)ethyl]-4-hydroxy-5,6-dihydro-2H-pyran-2-one]
15 | 0.003 | CCc1cc(CCC2(C3CCCC3)CC(O)=C(Cc3nc4nc(C)cc(C)n4n3)C(=O)O2)ccc1CNS(C)(=O)=O (single isomer, unassigned; enantiomer 2) [A(130), Enantiomer 2 of N-[4-(2-{2-cyclopentyl-5-[(5,7-dimethyl[1,2,4]triazolo[1,5-a]pyrimidin-2-yl)methyl]-4-hydroxy-6-oxo-3,6-dihydro-2H-pyran-2-yl}ethyl)-2-ethylbenzyl]methanesulfonamide]
16 | 0.003 | CCc1cc(CCC2(C3CCCC3)CC(O)=C(Cc3nc4nc(C)cc(C)n4n3)C(=O)O2)c(OCC2CCC2)cc1O (stereo not drawn) [A(60), 6-{2-[2-(Cyclobutylmethoxy)5-ethyl-4-hydroxyphenyl]ethyl}-6-cyclopentyl-3-[(5,7-dimethyl[1,2,4]triazolo[1,5-a]pyrimidin-2-yl)methyl]-4-hydroxy-5,6-dihydro-2H-pyran-2-one]
17 | 0.005 | CCCOc1cc(O)c(CC(F)(F)F)cc1CCC1(C2CCCC2)CC(O)=C(Cc2nc3nc(C)cc(C)n3n2)C(=O)O1 (stereo not drawn) [A(77), 6-Cyclopentyl-3-[(5,7-dimethyl[1,2,4]triazolo[1,5-a]pyrimidin-2-yl)methyl]-4-hydroxy-6-{2-[4-hydroxy-2-propoxy-5-(2,2,2-trifluoroethyl)phenyl]ethyl}-5,6-dihydro-2H-pyran-2-one]
18 | 0.003 | Cc1cc(C)n2nc(CC3=C(O)CC(CCc4cc(CC(F)(F)F)nc(CC(F)(F)F)c4)(C4CCCC4)OC3=O)nc2n1 (single isomer, unassigned; enantiomer 1) [A(10), Enantiomer 1 of 6-{2-[2,6-Bis(2,2,2-trifluoroethyl)pyridin-4-yl]ethyl}-6-cyclopentyl-3-[(5,7-dimethyl[1,2,4]triazolo[1,5-a]pyrimidin-2-yl)methyl]-4-hydroxy-5,6-dihydro-2H-pyran-2-one]
19 | 0.1 | Cn1cc(CC2=C(O)CC(CCc3ccc(C(C)(C)C#N)c(Cl)c3)(C3CCCC3)OC2=O)cn1 (stereo not drawn) [B(24), 2-[2-Chloro-4-(2-{2-cyclopentyl-4-hydroxy-5-[(1-methyl-1H-pyrazol-4-yl)methyl]-6-oxo-3,6-dihydro-2H-pyran-2-yl}ethyl)phenyl]-2-methylpropanenitrile]
20 | 0.13 | CCc1cc(CCC2(C3CCCC3)CC(O)=C(Cc3nc4nc(C)cc(C)n4n3)C(=O)O2)ccc1CNCC1CC1 (stereo not drawn) [A(127), 6-Cyclopentyl-6-[2-(4-{[(cyclopropylmethyl)amino]methyl}-3-ethylphenyl)ethyl]-3-[(5,7-dimethyl[1,2,4]triazolo[1,5-a]pyrimidin-2-yl)methyl]-4-hydroxy-5,6-dihydro-2H-pyran-2-one]
21 | 12 | CCc1cc(CCC2(C3CCCC3)CC(=O)CC(=O)O2)ccc1OCCNC(=O)OC(C)(C)C (stereo not drawn) [A(68), tert-Butyl 2-{4-[2-(2-cyclopentyl-4,6-dioxotetrahydro-2H-pyran-2-yl)ethyl]-2-ethylphenoxy}ethylcarbamate]
22 | 0.007 | CCCOc1cc(O)c(CCC2(C3CCCC3)CC(O)=C(Cc3nc4nc(C)cc(C)n4n3)C(=O)O2)cc1CC (stereo not drawn) [A(49), 6-Cyclopentyl-3-[(5,7-dimethyl[1,2,4]triazolo[1,5-a]pyrimidin-2-yl)methyl]-6-[2-(5-ethyl-2-hydroxy-4-propoxyphenyl)ethyl]-4-hydroxy-5,6-dihydro-2H-pyran-2-one]
23 | 0.091 | Cc1cc(C)n2nc(CC3=C(O)CC(CCc4ccc(C(C)(C)O)c(C)c4)(C4CCCC4)OC3=O)nc2n1 (stereo not drawn) [B(32), 6-Cyclopentyl-3-[(5,7-dimethyl[1,2,4]triazolo[1,5-a]pyrimidin-2-yl)methyl]-4-hydroxy-6-{2-[4-(1-hydroxy-1-methylethyl)-3-methylphenyl]ethyl}-5,6-dihydro-2H-pyran-2-one]
24 | 0.3 | CCc1cc(CCC2(C3CCCC3)CC(O)=C(Cc3nc4ncc(C)cn4n3)C(=O)O2)ccc1-c1ncco1 (stereo not drawn) [A(137), 6-Cyclopentyl-6-{2-[3-ethyl-4-(1,3-oxazol-2-yl)phenyl]ethyl}-4-hydroxy-2-[(6-methyl[1,2,4]triazolo[1,5-a]pyrimidin-2-yl)methyl]-5,6-dihydro-2H-pyran-2-one]
